Reference: patent US20160108008A1, “Substituted N-(Tetrazol-5-yl)- and N-(Triazol-5-yl)arylcarboxamide Compounds and Their Use as Herbicides” (BASF SE, priority 2013, published 2016)
Marks after values point to notes of the source that are not given here.

Legend:
Format in all cases: in vivo
[1] = tested on: Setaria viridis; test: greenhouse post-emergence treatment, SETVI; conditions: 500 g/ha, scale 0-100
Description: (§1) The culture containers used were plastic flowerpots containing loamy sand with approximately 3.0% of humus as the substrate. The seeds of the test plants were sown separately for each species.
(§2) For the post-emergence treatment, the test plants were first grown to a height of 3 to 15 cm, depending on the plant habit, and only then treated with the active ingredients which had been suspended or emulsified in water. For this purpose, the test plants were either sown directly and grown in the same containers, or they were first grown separately as seedlings and transplanted into the test containers a few days prior to treatment.
(§3) Depending on the species, the plants were kept at 10-25° C. or 20-35° C. The test period extended over 2 to 4 weeks. During this time, the plants were tended, and their response to the individual treatments was evaluated.
(§4) Evaluation was carried out using a scale from 0 to 100. 100 means no emergence of the plants, or complete destruction of at least the aerial moieties, and 0 means no damage, or normal course of growth. A good herbicidal activity is given at values of at least 70 and a very good herbicidal activity is given at values of at least 85.
(§5) The plants used in the greenhouse experiments belonged to the following species: […]

[2] = tested on: Chenopodium album; test: greenhouse post-emergence treatment, CHEAL; conditions: scale 0-100
Description: as §1, §2, §3, §4
(§6) The plants used in the greenhouse experiments belonged to the following species:
(§7) Following representative compounds of formula I according to Table 9 were used in post-emergence treatments in greenhouse experiments (values labeled with * result from pre-emergence experiments): […]

[3] = tested on: Amaranthus retroflexus; test: greenhouse post-emergence treatment, AMARE; conditions: scale 0-100
Description: as §1, §2, §3, §4, §6, §7

[4] = tested on: Polygonum convolvulus; test: greenhouse post-emergence treatment, POLCO; conditions: scale 0-100
Description: as §1, §2, §3, §4, §6, §7

[5] = tested on: Amaranthus retroflexus; test: greenhouse pre-emergence treatment, AMARE; conditions: pre-emergence (value labeled *), 250 g/ha; scale 0-100
Description: as §1
(§8) For the pre-emergence treatment, the active ingredients, which had been suspended or emulsified in water, were applied directly after sowing by means of finely distributing nozzles. The containers were irrigated gently to promote germination and growth and subsequently covered with transparent plastic hoods until the plants had rooted. This cover caused uniform germination of the test plants, unless this has been impaired by the active ingredients.
as §3, §4, §6, §7

[6] = tested on: Abutilon theophrasti; test: greenhouse pre-emergence treatment, ABUTH; conditions: pre-emergence (value labeled *), scale 0-100
Description: as §1, §8, §3, §4, §6, §7

[7] = tested on: Agrostis spica-venti; test: greenhouse pre-emergence treatment, APESV; conditions: pre-emergence (value labeled *), scale 0-100
Description: as §1, §8, §3, §4, §6, §7

[8] = tested on: Echinochloa crus-galli; test: greenhouse post-emergence treatment, ECHCG; conditions: scale 0-100
Description: as §1, §2, §3, §4, §6, §7

[9] = tested on: Echinochloa crus-galli; test: greenhouse pre-emergence treatment, ECHCG; conditions: pre-emergence (value labeled *), 500 g/ha; scale 0-100
Description: as §1, §8, §3, §4, §5

Cc1c(C(=O)Nc2nnnn2C)cc(F)cc1S(C)(=O)=O [compound 7]
[%] damage to weed XI (SETVI) [1]: 100% | [%] damage to weed VI (CHEAL) ([2]; 500 g/ha): 100% | [%] damage to weed III (AMARE) ([3]; 500 g/ha): 100%

Cc1c(C(=O)Nc2ncnn2C)cc(F)cc1S(C)(=O)=O [compound 10]
[%] damage to weed IX (POLCO) ([4]; 250 g/ha): 100% | [%] damage to weed VI (CHEAL) ([2]; 250 g/ha): 100% | [%] damage to weed III (AMARE) ([3]; 250 g/ha): 100; % | [%] damage to weed III (AMARE) [5]: 95* %

CCSc1c(Cl)cc(F)c(C(=O)Nc2ncnn2C)c1Cl [compound 11]
[%] damage to weed IX (POLCO) ([4]; 250 g/ha): 100% | [%] damage to weed VI (CHEAL) ([2]; 250 g/ha): 100% | [%] damage to weed III (AMARE) ([3]; 250 g/ha): 100% | [%] damage to weed I (ABUTH) ([6]; 250 g/ha): 100* %

CCSc1c(Cl)cc(F)c(C(=O)Nc2nnnn2C)c1Cl [compound 12, 2,4-dichloro-3-ethylsulfanyl-6-fluoro-N-(1-methyltetrazol-5-yl)benzamide]
[%] damage to weed IX (POLCO) ([4]; 250 g/ha): 100% | [%] damage to weed VI (CHEAL) ([2]; 250 g/ha): 100% | [%] damage to weed III (AMARE) ([3]; 250 g/ha): 100% | [%] damage to weed I (ABUTH) ([6]; 250 g/ha): 100* %

CCS(=O)(=O)c1c(Cl)cc(F)c(C(=O)Nc2nnnn2C)c1Cl [compound 13, 2,4-Dichloro-3-ethylsulfonyl-6-fluoro-N-(1-methyltetrazol-5-yl)benzamide]
[%] damage to weed IX (POLCO) ([4]; 250 g/ha): 100% | [%] damage to weed VI (CHEAL) ([2]; 250 g/ha): 100% | [%] damage to weed III (AMARE) ([3]; 250 g/ha): 100% | [%] damage to weed I (ABUTH) ([6]; 250 g/ha): 100* %

CC[S+]([O-])c1c(Cl)cc(F)c(C(=O)Nc2ncnn2C)c1Cl (stereo not drawn) [compound 14]
[%] damage to weed IX (POLCO) ([4]; 250 g/ha): 100% | [%] damage to weed VI (CHEAL) ([2]; 250 g/ha): 100% | [%] damage to weed III (AMARE) ([3]; 250 g/ha): 100% | [%] damage to weed I (ABUTH) ([6]; 250 g/ha): 100* %

CCS(=O)(=O)c1c(Cl)cc(F)c(C(=O)Nc2ncnn2C)c1Cl [compound 15]
[%] damage to weed IV (APESV) ([7]; 500 g/ha): 98* % | [%] damage to weed IX (POLCO) ([4]; 500 g/ha): 98% | [%] damage to weed VI (CHEAL) ([2]; 500 g/ha): 100% | [%] damage to weed III (AMARE) ([3]; 500 g/ha): 100%

CC[S+]([O-])c1c(Cl)cc(F)c(C(=O)Nc2nnnn2C)c1Cl (stereo not drawn) [compound 16, 2,4-Dichloro-3-ethylsulfinyl-6-fluoro-N-(1-methyltetrazol-5-yl)benzamide]
[%] damage to weed IX (POLCO) ([4]; 250 g/ha): 100% | [%] damage to weed VI (CHEAL) ([2]; 250 g/ha): 100% | [%] damage to weed III (AMARE) ([3]; 250 g/ha): 100% | [%] damage to weed I (ABUTH) ([6]; 250 g/ha): 100* %

CCOc1c(Cl)cc(F)c(C(=O)Nc2ncnn2C)c1Cl [compound 17]
[%] damage to weed VII (ECHCG) ([8]; 500 g/ha): 98; % | [%] damage to weed VI (CHEAL) ([2]; 500 g/ha): 100% | [%] damage to weed III (AMARE) ([3]; 500 g/ha): 100% | [%] damage to weed VII (ECHCG) [9]: 85* %

CCOc1c(Cl)cc(F)c(C(=O)Nc2nnnn2CCOC)c1Cl [compound 19]
[%] damage to weed VII (ECHCG) ([8]; 250 g/ha): 100% | [%] damage to weed VI (CHEAL) ([2]; 250 g/ha): 100% | [%] damage to weed III (AMARE) ([3]; 250 g/ha): 100% | [%] damage to weed I (ABUTH) ([6]; 250 g/ha): 100* %

CCCSc1c(Cl)cc(F)c(C(=O)Nc2nnnn2C)c1Cl [compound 21]
[%] damage to weed VII (ECHCG) ([8]; 243 g/ha): 100% | [%] damage to weed VI (CHEAL) ([2]; 243 g/ha): 100% | [%] damage to weed III (AMARE) ([3]; 243 g/ha): 100% | [%] damage to weed I (ABUTH) ([6]; 243 g/ha): 100* %

CCSc1c(Cl)cc(Cl)c(C(=O)Nc2ncnn2C)c1Cl [compound 61]
[%] damage to weed VII (ECHCG) ([8]; 500 g/ha): 98% | [%] damage to weed IV (APESV) ([7]; 500 g/ha): 98* % | [%] damage to weed VI (CHEAL) ([2]; 500 g/ha): 100% | [%] damage to weed III (AMARE) ([3]; 500 g/ha): 100%

CCCn1ncnc1NC(=O)c1c(F)cc(Cl)c(SC)c1Cl [compound 62]
[%] damage to weed VII (ECHCG) ([8]; 250 g/ha): 98% | [%] damage to weed IV (APESV) ([7]; 250 g/ha): 80* % | [%] damage to weed VI (CHEAL) ([2]; 250 g/ha): 100% | [%] damage to weed III (AMARE) ([3]; 250 g/ha): 100%
